These results are taken from patent US20230141101A1, “PDE4 INHIBITOR COMPOUND AND MEDICAL USE THEREOF” (Suzhou Longbotai Pharmaceuticals Co., Ltd., priority 2020, published 2023).

What all share (type): biochemical
One experiment concerns the target T1, PDE4B1 (Homo sapiens, UniProt Q07343).
T1 construct: purchased BPS 60041
The experiment can be described thus: PDE4 inhibitory activity assay (FAM-cAMP enzymatic reaction), PDE4B1. As to conditions: 20 nM. Here is the method: (§1) The compounds of the present disclosure were tested for their inhibitory activity (IC50 value) against PDE4A1A, PDE4B1, and PDE4D2.
(§2) Positive compound: Trequinsin (Sigma, Cat No. T20S7).
(§3) Instrument: Wallac Victor Muti-lable counter (Pekin Elmer) Steps of assay:
(§4) PDE enzymatic reaction; • 1) PDE was dissolved in 1× reaction solution to prepare 2× enzyme solution; • 2) FAM-cAMP was dissolved in 1× reaction solution to prepare 2× substrate solution; • 3) Corresponding volume of the compound in DMSO was transferred to the reaction plate through Echo 550; • 4) 2× enzyme solution was added into the corresponding wells of the reaction plate and incubated with the compound solution for 15 minutes at room temperature; • 5) 2× substrate solution was added into the corresponding well of the reaction plate to initiate the reaction; • 6) After the reaction plate was incubated at room temperature for 30 min, the reaction was terminated by adding reaction stopping solution. The reaction plate was incubated at room temperature for another 60 minutes;
(§5) Inhibition rates were calculated with Excel; and IC50 for each compound was calculated with Graphpad prism.

The target of the next experiment is T2, PDE4A1A (Homo sapiens, UniProt P27815).
T2 construct: purchased BPS 60040
In words: PDE4 inhibitory activity assay (FAM-cAMP enzymatic reaction), PDE4A1A. Here is the method: as §1, §2, §3, §4, §5

The next experiment concerns the target PDE4D2 (Homo sapiens, UniProt Q08499). The experiment can be described thus: PDE4 inhibitory activity assay (FAM-cAMP enzymatic reaction), PDE4D2. As to conditions: for IC50: read-out: PDE4 D2 inhibitory activity (IC50 value). The protocol: as §1, §2, §3, §4, §5
[1] abbreviates: compared with Apremilast and Example 11 of WO2018036470 (WX011).

What is called IC50 is the point on the concentration scale where inhibition reaches its midpoint.

T2 sequence (P27815 1-647 isoform P27815-4): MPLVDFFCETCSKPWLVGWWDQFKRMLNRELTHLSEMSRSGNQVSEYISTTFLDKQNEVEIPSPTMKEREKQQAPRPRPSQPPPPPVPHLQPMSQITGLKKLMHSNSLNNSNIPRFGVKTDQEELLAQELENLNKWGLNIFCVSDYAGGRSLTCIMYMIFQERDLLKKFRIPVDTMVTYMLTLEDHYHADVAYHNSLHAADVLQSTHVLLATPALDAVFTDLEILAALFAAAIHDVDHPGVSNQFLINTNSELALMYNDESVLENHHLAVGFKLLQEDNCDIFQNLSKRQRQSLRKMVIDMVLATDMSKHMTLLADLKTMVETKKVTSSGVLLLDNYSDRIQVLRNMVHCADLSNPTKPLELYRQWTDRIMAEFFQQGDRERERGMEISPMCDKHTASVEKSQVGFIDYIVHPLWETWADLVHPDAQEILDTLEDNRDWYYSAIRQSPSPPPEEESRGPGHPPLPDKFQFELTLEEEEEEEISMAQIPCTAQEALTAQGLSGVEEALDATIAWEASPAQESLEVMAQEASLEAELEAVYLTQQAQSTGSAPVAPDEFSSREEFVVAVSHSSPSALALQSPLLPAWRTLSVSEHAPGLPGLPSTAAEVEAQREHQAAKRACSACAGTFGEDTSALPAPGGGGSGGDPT
T1 sequence (Q07343 whole entry): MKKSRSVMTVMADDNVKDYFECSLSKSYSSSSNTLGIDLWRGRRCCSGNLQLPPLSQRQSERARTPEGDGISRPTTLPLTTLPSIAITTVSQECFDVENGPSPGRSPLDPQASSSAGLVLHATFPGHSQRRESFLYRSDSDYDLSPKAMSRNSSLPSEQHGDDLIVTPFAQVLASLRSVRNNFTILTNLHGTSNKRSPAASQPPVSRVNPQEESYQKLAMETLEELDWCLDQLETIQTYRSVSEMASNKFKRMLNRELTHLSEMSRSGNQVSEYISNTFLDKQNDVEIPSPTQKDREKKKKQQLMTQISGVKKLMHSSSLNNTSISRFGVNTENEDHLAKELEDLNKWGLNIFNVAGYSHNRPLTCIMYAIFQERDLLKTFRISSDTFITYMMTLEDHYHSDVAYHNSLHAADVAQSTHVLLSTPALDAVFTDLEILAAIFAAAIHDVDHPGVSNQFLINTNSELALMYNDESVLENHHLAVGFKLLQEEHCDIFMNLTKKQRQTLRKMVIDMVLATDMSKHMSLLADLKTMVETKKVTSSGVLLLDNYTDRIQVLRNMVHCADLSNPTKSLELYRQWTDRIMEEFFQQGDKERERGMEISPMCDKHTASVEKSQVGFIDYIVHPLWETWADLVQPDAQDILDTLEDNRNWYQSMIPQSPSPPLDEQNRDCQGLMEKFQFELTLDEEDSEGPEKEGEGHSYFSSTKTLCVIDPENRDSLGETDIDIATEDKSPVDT
Chain of PDE4D2 (Q08499 303-809): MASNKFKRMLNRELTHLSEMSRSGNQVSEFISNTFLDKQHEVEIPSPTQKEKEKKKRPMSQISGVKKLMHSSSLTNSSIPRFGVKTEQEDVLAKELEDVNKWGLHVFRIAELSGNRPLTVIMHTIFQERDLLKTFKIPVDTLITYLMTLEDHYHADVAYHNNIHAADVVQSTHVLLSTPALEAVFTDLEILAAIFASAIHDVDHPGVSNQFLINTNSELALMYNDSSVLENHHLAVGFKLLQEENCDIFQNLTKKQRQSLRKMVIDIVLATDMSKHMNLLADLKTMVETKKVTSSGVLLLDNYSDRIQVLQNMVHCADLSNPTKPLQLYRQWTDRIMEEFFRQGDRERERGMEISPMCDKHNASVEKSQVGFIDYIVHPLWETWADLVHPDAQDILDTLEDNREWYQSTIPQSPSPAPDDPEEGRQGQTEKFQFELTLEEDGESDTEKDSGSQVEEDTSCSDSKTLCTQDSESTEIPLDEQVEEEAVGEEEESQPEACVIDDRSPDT

In the case of `CCOc1nc([C@@H](CS(C)(=O)=O)n2c(=O)n(C)c3cc(-c4ccccc4C)ccc32)ccc1OC` [Ex. 140, (S)-1-(1-(6-ethoxy-5-methoxypyridin-2-yl)-2-(methylsulfonyl)ethyl)-5-(o-methylphenyl)-3-methyl-1H-benzo[d]imidazol-2(3H)-one], the “PDE4 B1 inhibitory effect at 20 nM” value at PDE4B1 is “+”. For the same compound, on PDE4A1A, the “PDE4 A1 inhibitory effect at 20 nM” value is recorded as “+”. Further, the “PDE4 D2 inhibitory effect at 20 nM” value on PDE4D2 was “+”.

For `CCOc1nc([C@@H](CS(C)(=O)=O)n2c(=O)[nH]c3cc(-c4c(F)cccc4OC)cnc32)ccc1OC` [Ex. 121, (S)-6-(6-fluoro-2-methoxyphenyl)-3-(1-(6-ethoxy-5-methoxypyridin-2-yl)-2-(methylsulfonyl)ethyl)-1H-imidazo[4,5-b]pyridin-2(3H)-one], the “PDE4 B1 inhibitory effect at 20 nM” value at PDE4B1 is recorded as “+”. Besides, the “PDE4 A1 inhibitory effect at 20 nM” value on PDE4A1A was “+”. On PDE4D2, the “PDE4 D2 inhibitory effect at 20 nM” value is reported as “+”.

Regarding `CCOc1nc([C@@H](CS(C)(=O)=O)n2c(=O)[nH]c3c(C)c(-c4cccc(C)c4F)cnc32)ccc1OC` [Ex. 39, (S)-6-(2-fluoro-3-methylphenyl)-3-(1-(6-ethoxy-5-methoxypyridin-2-yl)-2-(methylsulfonyl)ethyl)-7-methyl-1H-imidazo[4,5-b]pyridin-2(3H)-one], the “PDE4 B1 inhibitory effect at 20 nM” value on PDE4B1 is “+”. Further, on PDE4A1A, the “PDE4 A1 inhibitory effect at 20 nM” value is “+”. For the same compound, the “PDE4 D2 inhibitory effect at 20 nM” value at PDE4D2 is “+”.

Regarding `CCOc1nc([C@@H](CS(C)(=O)=O)n2c(=O)n(C)c3c(C)c(-c4ccc(F)cc4)cnc32)ccc1OC(F)F` [Ex. 67, (S)-3-(1-(5-(difluoromethoxy)-6-ethoxypyridin-2-yl)-2-(methylsulfonyl)ethyl)-6-(4-fluorophenyl)-1,7-dimethyl-1H-imidazo[4,5-b]pyridin-2(3H)-one], the “PDE4 B1 inhibitory effect at 20 nM” value on PDE4B1 is on record as “+”. Moreover, the “PDE4 A1 inhibitory effect at 20 nM” value on PDE4A1A is reported as “+”. Moreover, the “PDE4 D2 inhibitory effect at 20 nM” value on PDE4D2 is “+”.

With `CCOc1nc([C@@H](CS(C)(=O)=O)n2c(=O)[nH]c3c(-c4ccccc4OC)cccc32)ccc1OC` [Ex. 203, (S)-1-(1-(6-ethoxy-5-methoxypyridin-2-yl)-2-(methylsulfonyl)ethyl)-4-(2-methoxyphenyl)-1H-benzo[d]imidazol-2(3H)-one], the “PDE4 B1 inhibitory effect at 20 nM” value at PDE4B1 is reported as “+”. In addition, the “PDE4 A1 inhibitory effect at 20 nM” value at PDE4A1A was “+”. Further, at PDE4D2, the “PDE4 D2 inhibitory effect at 20 nM” value is “+”.

As for `CCOc1nc([C@@H](CS(C)(=O)=O)n2c(=O)n(C)c3cc(-c4ccccc4OC)ccc32)ccc1OC` [Ex. 144, (S)-1-(1-(6-ethoxy-5-methoxypyridin-2-yl)-2-(methylsulfonyl)ethyl)-5-(2-methoxyphenyl)-3-methyl-1H-benzo[d]imidazol-2(3H)-one], the “PDE4 B1 inhibitory effect at 20 nM” value at PDE4B1 is given as “+”. Moreover, the “PDE4 A1 inhibitory effect at 20 nM” value on PDE4A1A is given as “+”. Moreover, the “PDE4 D2 inhibitory effect at 20 nM” value on PDE4D2 was “+”.

For `CCOc1nc([C@@H](CS(C)(=O)=O)n2c(=O)n(C)c3cc(-c4ccc(F)cc4F)ccc32)ccc1OC` [Ex. 157, (S)-5-(2,4-difluorophenyl)-1-(1-(6-ethoxy-5-methoxypyridin-2-yl)-2-(methylsulfonyl)ethyl)-3-methyl-1H-benzo[d]imidazol-2(3H)-one], the “PDE4 B1 inhibitory effect at 20 nM” value at PDE4B1 is given as “+”. Also, the “PDE4 A1 inhibitory effect at 20 nM” value on PDE4A1A is given as “+”. In addition, the “PDE4 D2 inhibitory effect at 20 nM” value on PDE4D2 is on record as “+”.

Take `CCOc1nc([C@@H](CS(C)(=O)=O)n2c(=O)[nH]c3cc(-c4cc(C)ccc4C)ccc32)ccc1OC` [Ex. 164, (S)-5-(2,5-dimethylphenyl)-1-(1-(6-ethoxy-5-methoxypyridin-2-yl)-2-(methylsulfonyl)ethyl)-1H-benzo[d]imidazol-2(3H)-one]: the “PDE4 B1 inhibitory effect at 20 nM” value on PDE4B1 is “+”. Moreover, the “PDE4 A1 inhibitory effect at 20 nM” value at PDE4A1A is reported as “+”. Also, the “PDE4 D2 inhibitory effect at 20 nM” value at PDE4D2 was “+”.

For the compound `CCOc1nc([C@@H](CS(C)(=O)=O)n2c(=O)[nH]c3c(C)c(-c4ccc(F)cc4C)cnc32)ccc1OC` [Ex. 35, (S)-6-(4-fluoro-2-methylphenyl)-3-(1-(6-ethoxy-5-methoxypyridin-2-yl)-2-(methylsulfonyl)ethyl)-7-methyl-1H-imidazo[4,5-b]pyridin-2(3H)-one], on PDE4D2, the concentration for half-maximal inhibition (IC50) came out at 3.4 nM.

Regarding `CCOc1nc([C@H](CS(C)(=O)=O)n2c(=O)n(C)c3cc(-c4ccc(F)cc4)ccc32)ccc1OC` [Ex. 138, (R)-1-(1-(6-ethoxy-5-methoxypyridin-2-yl)-2-(methylsulfonyl)ethyl)-3-methyl-5-(4-fluorophenyl)-1H-benzo[d]imidazol-2(3H)-one], on PDE4B1, the “PDE4 B1 inhibitory effect at 20 nM” value was “+”. The “PDE4 A1 inhibitory effect at 20 nM” value on PDE4A1A is listed as “+”. For the same compound, at PDE4D2, the “PDE4 D2 inhibitory effect at 20 nM” value is “+”.

Turning to `CCOc1nc([C@@H](CS(C)(=O)=O)N2Cc3cccc(NC(=O)C4CC4)c3C2=O)ccc1OC` [Ex. 217, (S)—N-(2-(1-(6-ethoxy-5-methoxypyridin-2-yl)-2-(methylsulfonyl)ethyl)-3-oxoisoindolin-4-yl)cyclopropanecarboxamide], at PDE4B1, the “PDE4 B1 inhibitory effect at 20 nM” value was “+”. Moreover, the “PDE4 A1 inhibitory effect at 20 nM” value on PDE4A1A is given as “+”. For the same compound, the “PDE4 D2 inhibitory effect at 20 nM” value at PDE4D2 is “+”.

Turning to `CCOc1nc([C@@H](CS(C)(=O)=O)n2c(=O)[nH]c3cc(-c4ccc(F)cc4C)ccc32)ccc1OC` [Ex. 169, (S)-5-(4-fluoro-2-methylphenyl)-1-(1-(6-ethoxy-5-methoxypyridin-2-yl)-2-(methylsulfonyl)ethyl)-1H-benzo[d]imidazol-2(3H)-one], the “PDE4 B1 inhibitory effect at 20 nM” value at PDE4B1 is “+”. Further, the “PDE4 A1 inhibitory effect at 20 nM” value at PDE4A1A is “+”. At PDE4D2, the “PDE4 D2 inhibitory effect at 20 nM” value is “+”.

With `CCOc1nc([C@@H](CS(C)(=O)=O)n2c(=O)[nH]c3c(-c4ccccc4F)cccc32)ccc1OC` [Ex. 205, (S)-1-(1-(6-ethoxy-5-methoxypyridin-2-yl)-2-(methylsulfonyl)ethyl)-4-(2-fluorophenyl)-1H-benzo[d]imidazol-2(3H)-one], at PDE4B1, the “PDE4 B1 inhibitory effect at 20 nM” value is reported as “+”. Besides, the “PDE4 A1 inhibitory effect at 20 nM” value on PDE4A1A is listed as “+”. For the same compound, the “PDE4 D2 inhibitory effect at 20 nM” value at PDE4D2 is “+”.

Regarding `CCOc1nc([C@@H](CS(C)(=O)=O)n2c(=O)[nH]c3c(C)c(-c4ccc(C)cc4C)cnc32)ccc1OC` [Ex. 31, (S)-6-(2,4-dimethylphenyl)-3-(1-(6-ethoxy-5-methoxypyridin-2-yl)-2-(methylsulfonyl)ethyl)-7-methyl-1H-imidazo[4,5-b]pyridin-2(3H)-one], at PDE4D2, the IC50 turned out to be 4.1 nM.

For the compound `CCOc1nc([C@@H](CS(C)(=O)=O)n2c(=O)[nH]c3c(C)c(-c4ccccc4)cnc32)ccc1OC` [Ex. 4, (S)-3-(1-(6-ethoxy-5-methoxypyridin-2-yl)-2-(methylsulfonyl)ethyl)-7-methyl-6-phenyl-1H-imidazo[4,5-b]pyridin-2(3H)-one], the IC50 on PDE4D2 is 8.5 nM.

Take `CCOc1nc([C@@H](CS(C)(=O)=O)n2c(=O)[nH]c3cc(-c4ccccc4C)cnc32)ccc1OC` [Ex. 79, (S)-3-(1-(6-ethoxy-5-methoxypyridin-2-yl)-2-(methylsulfonyl)ethyl)-6-(o-methylphenyl)-1H-imidazo[4,5-b]pyridin-2(3H)-one]: the IC50 at PDE4D2 came out at 4.7 nM.

`CCOc1nc([C@H](CS(C)(=O)=O)n2c(=O)[nH]c3c(C)c(-c4ccccc4C)cnc32)ccc1OC` [Ex. 9, (R)-3-(1-(6-ethoxy-5-methoxypyridin-2-yl)-2-(methylsulfonyl)ethyl)-7-methyl-6-(o-methylphenyl)-1H-imidazo[4,5b]pyridin-2(3H)-one]: the IC50 on PDE4D2 is 318 nM.

In the case of `CCOc1nc([C@H](CS(C)(=O)=O)n2c(=O)[nH]c3c(C)c(-c4ccccc4OC)cnc32)ccc1OC` [Ex. 13, (R)-3-(1-(6-ethoxy-5-methoxypyridin-2-yl)-2-(methylsulfonyl)ethyl)-6-(2-methoxyphenyl)-7-methyl-1H-imidazo[4,5-b]pyridin-2(3H)-one], on PDE4D2, the IC50 was found to be 396 nM.

In the case of `CCOc1nc([C@@H](CS(C)(=O)=O)n2c(=O)[nH]c3c(C)c(-c4ccccc4F)cnc32)ccc1OC` [Ex. 2, (S)-3-(1-(6-ethoxy-5-methoxypyridin-2-yl)-2-(methylsulfonyl)ethyl)-6-(2-fluorophenyl)-7-methyl-1H-imidazo[4,5-b]pyridin-2(3H)-one], the “inhibitory activity against PDE4A1A compared with Apremilast and WX011” value against PDE4A1A (setting [1]) is “significantly enhanced inhibitory activity”. Besides, the “inhibitory activity against PDE4D2 compared with Apremilast and WX011” value at PDE4D2 (setting [1]) is recorded as “significantly enhanced inhibitory activity”. Besides, the IC50 at PDE4D2 turned out to be 3.4 nM.

On to `CCOc1nc([C@@H](CS(C)(=O)=O)n2c(=O)n(C)c3cc(-c4ccccc4C)cnc32)ccc1OC` [Ex. 80, (S)-3-(1-(6-ethoxy-5-methoxypyridin-2-yl)-2-(methylsulfonyl)ethyl)-1-methyl-6-(o-methylphenyl)-1H-imidazo[4,5-b]pyridin-2(3H)-one], for which the IC50 at PDE4D2 amounted to 6.8 nM.

Consider `CCOc1nc([C@@H](CS(C)(=O)=O)n2c(=O)[nH]c3c(C)c(-c4cc(F)ccc4F)cnc32)ccc1OC` [Ex. 27, (S)-6-(2,5-difluorophenyl)-3-(1-(6-ethoxy-5-methoxypyridin-2-yl)-2-(methylsulfonyl)ethyl)-7-methyl-1H-imidazo[4,5-b]pyridin-2(3H)-one], for which the IC50 at PDE4D2 came to 3.7 nM.

For `CCOc1nc([C@H](CS(C)(=O)=O)n2c(=O)[nH]c3c(C)c(-c4ccccc4F)cnc32)ccc1OC` [Ex. 3, (R)-3-(1-(6-ethoxy-5-methoxypyridin-2-yl)-2-(methylsulfonyl)ethyl)-6-(2-fluorophenyl)-7-methyl-1H-imidazo[4,5-b]pyridin-2(3H)-one], the IC50 at PDE4D2 is 415 nM.
